pKi: −log10 of the molar value.
Target: T1, full length human recombinant glucocorticoid receptor (Homo sapiens, UniProt P04150)
T1 construct: It contains some partially purified full length human recombinant glucocorticoid receptor; purchased Panvera/Invitrogen PV4302
T1 sequence (P04150 1-777): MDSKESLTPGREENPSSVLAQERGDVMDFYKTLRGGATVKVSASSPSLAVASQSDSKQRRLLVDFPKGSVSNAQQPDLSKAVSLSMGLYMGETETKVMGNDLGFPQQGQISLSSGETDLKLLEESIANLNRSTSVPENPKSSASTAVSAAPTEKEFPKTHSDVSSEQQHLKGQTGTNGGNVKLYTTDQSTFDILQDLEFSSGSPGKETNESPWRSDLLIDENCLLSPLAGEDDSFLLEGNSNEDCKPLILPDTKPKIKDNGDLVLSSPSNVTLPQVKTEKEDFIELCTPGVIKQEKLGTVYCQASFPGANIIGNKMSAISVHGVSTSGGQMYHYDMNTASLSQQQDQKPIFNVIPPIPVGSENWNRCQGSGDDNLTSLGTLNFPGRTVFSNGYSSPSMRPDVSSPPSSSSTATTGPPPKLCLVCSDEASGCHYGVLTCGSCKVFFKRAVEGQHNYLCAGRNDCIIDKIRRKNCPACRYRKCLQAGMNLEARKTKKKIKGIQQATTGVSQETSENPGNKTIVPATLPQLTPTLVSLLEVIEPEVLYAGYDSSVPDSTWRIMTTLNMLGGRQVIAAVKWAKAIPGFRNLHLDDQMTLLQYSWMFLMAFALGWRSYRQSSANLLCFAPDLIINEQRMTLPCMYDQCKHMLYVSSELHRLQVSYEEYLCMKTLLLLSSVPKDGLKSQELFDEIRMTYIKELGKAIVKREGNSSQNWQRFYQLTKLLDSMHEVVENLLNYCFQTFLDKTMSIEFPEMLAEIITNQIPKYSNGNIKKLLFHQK
Assay: Glucocorticoid Receptor Binding Assay (Glucocorticoid Receptor Competitor Assay far red kit, fluorescence polarization)
Details: competition with fluorescent GR ligand Fluormone GS Far Red, 3 hours at 22° C., pH 7.4; Ki calculated from IC50 by Cheng-Prusoff
In short: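 Fluorescence polarization competition with partially purified full-length human recombinant GR, stabilizing peptide and Fluormone GS Far Red tracer in screening buffer pH 7.4; 3 hours at 22° C in the dark, read at 610–660 nm. IC50 from sigmoidal fit; Ki by Cheng-Prusoff.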

| SMILES | pKi |
| --- | --- |
| CCN1C(=O)COc2ccc([C@](O)([C@H](C)c3ccc(-c4ccc(C(=O)O)c(F)c4)cc3Cl)C(F)(F)F)cc21 (relative stereo) [Example 65, 3′-Chloro-4′-[2-(4-ethyl-3-oxo-3,4-dihydro-2H-benzo[1,4]oxazin-6-yl)-3,3,3-trifluoro-2-hydroxy-1-methyl-propyl]-3-fluoro-biphenyl-4-carboxylic acid] | 6.89 |
| COC(=O)c1ccc(Oc2ccc(Cl)c([C@H](C)[C@](O)(c3ccc4c(c3)N(C)C(=O)CO4)C(F)(F)F)c2)cc1F (relative stereo) [Example 13, 4-{4-Chloro-3-[3,3,3-trifluoro-2-hydroxy-1-methyl-2-(4-methyl-3-oxo-3,4-dihydro-2H-benzo[1,4]oxazin-6-yl)-propyl]-phenoxy}-2-fluoro-benzoic acid methyl ester] | 8.27 |
| Cc1cc([C@@](O)([C@@H](C)c2ccc(Oc3ccc(C(=O)O)c(F)c3)cc2Cl)C(F)(F)F)cc(C)c1C#N (stereo in doubt) [Example 142, 4-{3-Chloro-4-[2-(4-cyano-3,5-dimethyl-phenyl)-3,3,3-trifluoro-2-hydroxy-1-methyl-propyl]-phenoxy}-2-fluoro-benzoic acid] | 8.68 |
| C[C@H](c1ccc(Oc2ccc(C(=O)O)c(Cl)c2)cc1Cl)[C@](O)(c1ccc2c(c1)OCO2)C(F)(F)F (relative stereo) [Example 103, 4-[4-(2-Benzo[1,3]dioxol-5-yl-3,3,3-trifluoro-2-hydroxy-1-methyl-propyl)-3-chloro-phenoxy]-2-chloro-benzoic acid] | 7.64 |
| COC(=O)c1ccc(-c2ccc([C@H](C)[C@](O)(c3ccc4c(c3)N(C)C(=O)CO4)C(F)(F)F)c(Cl)c2)cc1F (racemic) [Example 25, 3′-Chloro-3-fluoro-4′-[3,3,3-trifluoro-2-hydroxy-1-methyl-2-(4-methyl-3-oxo-3,4-dihydro-2H-benzo[1,4]oxazin-6-yl)-propyl]-biphenyl-4-carboxylic acid methyl ester] | 8.55 |
| COC(=O)c1ccc(-c2ccc([C@H](C)[C@](O)(c3ccc(=O)n4ccccc34)C(F)(F)F)c(Cl)c2)cc1F (stereo in doubt) [Example 49, 3′-Chloro-3-fluoro-4′-[3,3,3-trifluoro-2-hydroxy-1-methyl-2-(4-oxo-4H-quinolizin-1-yl)-propyl]-biphenyl-4-carboxylic acid methyl ester] | 7.80 |
| COc1cc(-c2ccc([C@@H](C)[C@@](O)(c3ccc4oc(=O)n(C)c4c3)C(F)(F)F)c(Cl)c2)ccc1C(=O)O (stereo in doubt) [Example 132, 3′-Chloro-3-methoxy-4′-[3,3,3-trifluoro-2-hydroxy-1-methyl-2-(3-methyl-2-oxo-2,3-dihydro-benzooxazol-5-yl)-propyl]-biphenyl-4-carboxylic acid] | 8.52 |
| C[C@H](c1ccc(Oc2ccc(C(=O)O)c(Cl)n2)cc1Cl)[C@@](O)(c1ccc2c(c1)N(C)C(=O)CO2)C(F)(F)F (stereo in doubt) [Example 209, 2-Chloro-6-{3-chloro-4-[3,3,3-trifluoro-2-hydroxy-1-methyl-2-(4-methyl-3-oxo-3,4-dihydro-2H-benzo[1,4]oxazin-6-yl)-propyl]-phenoxy}-nicotinic acid] | 9.10 |
| C[C@H](c1ccc(Oc2ccc(C(=O)O)c(C(F)(F)F)n2)cc1Cl)[C@@](O)(c1ccc2c(c1)N(C)C(=O)CO2)C(F)(F)F (stereo in doubt) [Example 215, 6-{3-Chloro-4-[3,3,3-trifluoro-2-hydroxy-1-methyl-2-(4-methyl-3-oxo-3,4-dihydro-2H-benzo[1,4]oxazin-6-yl)-propyl]-phenoxy}-2-trifluoromethyl-nicotinic acid] | 8.85 |
| CC(c1ccc(Oc2ccc(F)c(C(=O)O)c2)cc1Cl)C(O)(c1ccc2c(c1)n(C)c(=O)n2C)C(F)(F)F (stereo not drawn) [Example 91, 5-{3-Chloro-4-[2-(1,3-dimethyl-2-oxo-2,3-dihydro-1H-benzoimidazol-5-yl)-3,3,3-trifluoro-2-hydroxy-1-methyl-propyl]phenoxy}-2-fluoro-benzoic acid] | 9.52 |
| C[C@H](c1ccc(Oc2cccc(C(=O)O)c2)cc1Cl)[C@@](O)(c1ccc2c(c1)N(C)C(=O)CO2)C(F)(F)F (racemic) [Example 61, 3-{3-Chloro-4-[3,3,3-trifluoro-2-hydroxy-1-methyl-2-(4-methyl-3-oxo-3,4-dihydro-2H-benzo[1,4]oxazin-6-yl)-propyl]-phenoxy}-benzoic acid] | 9.00 |
| CCN1C(=O)COc2ccc([C@@](O)([C@@H](C)c3ccc(Oc4ccc(C(=O)O)c(Cl)n4)cc3Cl)C(F)(F)F)cc21 (relative stereo) [Example 69, 2-Chloro-6-{3-chloro-4-[2-(4-ethyl-3-oxo-3,4-dihydro-2H-benzo[1,4]oxazin-6-yl)-3,3,3-trifluoro-2-hydroxy-1-methyl-propyl]-phenoxy}-nicotinic acid] | 7.44 |
| COC(=O)c1ccc(-c2ccc([C@H](C)[C@](O)(c3cc(F)c4c(c3)N(C)C(=O)CO4)C(F)(F)F)c(Cl)c2)cc1F (relative stereo) [Example 45, 3′-Chloro-3-fluoro-4′-[3,3,3-trifluoro-2-(8-fluoro-4-methyl-3-oxo-3,4-dihydro-2H-benzo[1,4]oxazin-6-yl)-2-hydroxy-1-methyl-propyl]-biphenyl-4-carboxylic acid methyl ester] | 8.68 |
| C[C@H](c1ccc(-c2ccc(C(=O)O)c(F)c2)cc1Cl)[C@@](O)(c1ccc2c(c1)oc(=O)n2C)C(F)(F)F (relative stereo) [Example 134, 3′-Chloro-3-fluoro-4′-[3,3,3-trifluoro-2-hydroxy-1-methyl-2-(3-methyl-2-oxo-2,3-dihydro-benzooxazol-6-yl)-propyl]-biphenyl-4-carboxylic acid] | 6.96 |
| C[C@H](c1ccc(Oc2ccc(C(=O)O)nc2)cc1Cl)[C@@](O)(c1ccc2c(c1)n(C)c(=O)n2C)C(F)(F)F (stereo in doubt) [Example 95, 5-{3-Chloro-4-[2-(1,3-dimethyl-2-oxo-2,3-dihydro-1H-benzoimidazol-5-yl)-3,3,3-trifluoro-2-hydroxy-1-methyl-propyl]-phenoxy}-pyridine-2-carboxylic acid] | 8.28 |
